The assay deals with T1, recombinant human IL-8 type b receptor (IL-8 Rb, Type II, permissive receptor) (Homo sapiens, UniProt P25025).
T1 sequence (P25025 1-360): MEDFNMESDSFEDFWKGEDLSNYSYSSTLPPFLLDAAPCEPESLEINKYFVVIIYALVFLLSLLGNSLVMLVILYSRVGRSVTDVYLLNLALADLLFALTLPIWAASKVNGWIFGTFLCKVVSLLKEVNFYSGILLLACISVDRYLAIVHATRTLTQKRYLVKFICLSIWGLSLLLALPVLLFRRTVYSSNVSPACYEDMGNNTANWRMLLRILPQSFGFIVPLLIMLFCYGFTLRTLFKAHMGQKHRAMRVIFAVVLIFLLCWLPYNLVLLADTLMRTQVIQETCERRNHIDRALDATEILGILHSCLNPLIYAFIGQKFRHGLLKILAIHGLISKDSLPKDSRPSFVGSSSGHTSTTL
As to the kind of experiment: Receptor binding assay, [125I] IL-8 binding to IL-8 Rb (Type II, permissive) receptor membranes. As to conditions: recombinant IL-8 Rb (Type II) CHO membranes. Here is the method: The IL-8, and Gro-a chemokine inhibitiory effects of compounds of the present invention were determined by the following in vitro assay:
[^125 I] IL-8 (human recombinant) was obtained from Amersham Corp., Arlington Heights, Ill., with specific activity 2000 Ci/mmol. Gro-a was obtained from NEN- New England Nuclear. All other chemicals were of analytical grade. High levels of recombinant human IL-8 type a and b receptors were individually expressed in Chinese hamster ovary cells as described previously (Holmes, et al., Science, 1991, 253, 1278). The Chinese hamster ovary membranes were homogenized according to a previously described protocol (Haour, et al., J Biol Chem., 249 pp 2195-2205 (1974)). Except that the homogenization buffer was changed to 10 mM Tris-HCl, 1 mM MgS04, 0.5 mM EDTA (ethylene-diaminetetraacetic acid), 1 mM PMSF (a-toulenesulphonly flouride), 0.5 mg/L Leupeptin, pH 7.5. Membrane protein concentration was determined using Pierce Co. micro-assay kit using bovine serum albumin as a standard. All assays were performed in a 96-well micro plate format. Each reaction mixture contained ^125 I IL-8 (0.25 nM) or ^125 I Gro-a and 0.5 μg/mL of IL-8Ra or 1.0 μg/mL of IL-8Rb membranes in 20 mM Bis-Trispropane and 0.4 mM Tris HCl buffers, pH 8.0, containing 1.2 mM MgSO4, 0.1 mM EDTA, 25 mM NaCl and 0.03% CHAPS. In addition, drug or compound of interest was added which had been pre-dissolved in DMSO so as to reach a final concentration of between 0.01 nM and 100 uM. The assay was initiated by addition of ^125 I-IL-8. After 1 hour at room temperature the plate was harvested using a Tomtec 96-well harvester onto a glass fiber filtermat blocked with 1% polyethylenimine/0.5% BSA and washed 3 times with 25 mM NaCl, 10 mM TrisHCl, 1 mM MgSO4, 0.5 mM EDTA, 0.03% CHAPS, pH 7.4. The filter was then dried and counted on the Betaplate liquid scintillation counter. The recombinant IL-8 Ra, or Type I, receptor is also referred to herein as the non-permissive receptor and the recombinant IL-8 Rb, or Type II, receptor is referred to as the permissive receptor.

SMILES strings stand for the structures.

Experimental findings from patent US6133319A, “IL-8 receptor antagonists” (SmithKline Beecham Corporation, priority 1999, dated 2000) are described below.

`N#Cc1ccc(NC(=O)N[C@@H]2CCCC[C@H]2OCc2ccccc2)c(NS(=O)(=O)c2ccccc2)c1` (relative stereo) [N-trans-(2-benzyloxycyclohexyl)-N'-((2-benzenesulfonylamino)4-cyanophenyl))urea]: the “activity in the permissive models for IL-8 receptor inhibition (result in words)” value was “inactive”.
As to `CC(C)(COCc1ccccc1)NC(=O)Nc1ccc([N+](=O)[O-])cc1O` [Example 6, N-(1,1-Dimethyl-2-benzoxyethyl)-N'-(2-hydroxy-4-nitrophenyl)urea], the “activity in the permissive models for IL-8 receptor inhibition (result in words)” value was “inactive”.
In the case of `CC(C)OCCNC(=O)Nc1ccc([N+](=O)[O-])cc1O` [N-(ethylisopropylether)-N'-(2-hydroxy-4-nitro-phenyl)urea] it was “inactive”; in that of `O=C(O)CCNC(=O)Nc1ccc([N+](=O)[O-])cc1O` [N-(2-carboxyethyl)-N'-(2-hydroxy-4-nitrophenyl)urea], “inactive”.
